Test results from patent US7622494B2, “Chemical compounds” (SmithKline Beecham Corporation, priority 2003, dated 2009).
Counter-ions that a name gives are not always drawn.

Each molecule was assayed on episomal HPV-16 DNA in W12-20850 cells (assay: W-12 cellular assay (hybrid capture quantification of episomal HPV-16 DNA)). Conditions: Human papillomavirus 16, 96 h; W12-20850 cells, four days incubation, episomal HPV-16 DNA by hybrid capture, inhibition relative to untreated control cells; read-out: W-12.
Type: cell-based, HPV16
Protocol: Compounds of the current invention are believed useful in the treatment and/or prophylaxis of conditions and diseases associated with HPV infection. Activity mediated through HPV was determined using the following W-12 cellular assay.
The W12 cell line used contains HPV16 DNA and was derived from a low-grade cervical dysplasia tissue by Margaret Stanley and subsequently clonally selected by Paul Lambert (University of Wisconsin). One of these clones, W12-20850, contains 1000 copies of episomal HPV16 DNA and was used in the cell-based assay. W12-20850 cells were routinely cultured with a gamma-irradiated (6000 rads) feeder layer of 3T3 cells. Assays, however, were run in the absence of a 3T3 feeder layer. W12-20850 and 3T3 cells were routinely split when they were sub-confluent. W12-20850 were grown in W12 Medium which is constituted of 25% DMEM (Gibco BRL, Cat # 12430-047), 75% F12 Media (Gibco BRL, Cat # 11765-021) and 2.5% FBS. The additives include […] Adenine (Sigma, Cat # A-9795), […] Hydrocortisone (Calbiochem, Cat # 386698); 5.0 mg/ml Bovine Insulin (Sigma, Cat # I-1882), 8.4 ng/ml cholera toxin (Fluka, Cat # 26694) and 10 ng/ml EGF (Invitrogen, Cat # 13247-051). 3T3 cells were grown in DMEM containing 10% FBS. Cell lines were incubated at 37° C., in the presence of 5% CO2.
For the assay, W12-20850 cells were seeded into a 96 well plate-containing compound. Plates were incubated at 37° C. in the presence of 5% CO2, for four days. On the fourth day, cells were lysed and the amount of episomal. HPV-16 DNA was quantified using a non-radioactive hybrid capture technique with HPV-16 specific capture and detection probes. The percent inhibition relative to untreated control cells' was then determined.
The hybrid capture assay is run in a 96 well plate format. Hybridization plates (Nunc Maxisorb Cat # 450320) were coated with a mixture of capture probe and ReactiBind solution for at least 4 hours and then washed with 0.2×SSC, 0.05% Tween20 (SSCT) prior to blocking with […] of 0.2 N NaOH, 1% Igepal, 10 mg/ml hsDNA for 6-8 hours. The hybridization was carried out by mixing 27 μl of lysed cells with 45 μl of denatured detection probe in 6M guanidine isothiocyanate. To prevent evaporation, 50 μl of mineral oil was added to each well. The plate was then heated to 90° C. for 6.5 minutes and the hybridization continued at 42° C. overnight. Assay plates were washed 6 times with SSC/T. Anti-digoxigenin HRP-conjugated Ab (Boehringer Mannheim 1207733, 1:5000) was incubated in the wells for 30 min at room temperature and washed with PBS/0.05% Tween-20. SuperSignal LBA substrate (Pierce Cat # 37070) was added, and chemiluminescence was measured using Wallac 1420 Victor plate reader.
With c1ccc2c(c1)CC(NC1CCCc3c1[nH]c1ccccc31)C2 (stereo not shown) [Example 20, N-(2.3-Dihydro-1H-inden-2-yl)-2,3,4,9-tetrahydro-1H-carbazol-1-amine hydrochloride salt] the IC50 was 3300 nM. Work on C[C@@H](CCc1ccccc1)NC1CCCc2c1[nH]c1ccccc21 (stereo partly drawn) [Example 24, N-[(1S)-1-Methyl-3-Phenylpropyl]-2,3,4,9-tetrahydro-1H-carbazol-1-aminehydrochloride salt] yielded an IC50 of 5300 nM. Molecule c1ccc2c3c([nH]c2c1)C(NCc1ccc2c(c1)OCO2)CCC3 (stereo not shown) [Example 25, N-(1.3-Benzodioxol-5-ylmethyl)-2,3,4,9-tetrahydro-1H-carbazol-1-amine hydrochloride salt] has an IC50 of 1500 nM. With Brc1ccc2[nH]c3c(c2c1)CCC[C@@H]3NC1Cc2ccccc2C1 [Example 28, (1S)-6-Bromo-N-(2.3-dihydro-1H-inden-2-yl)-2,3,4,9-tetrahydro-1H-carbazol-1-amine hydrochloride salt] the IC50 was 3700 nM. Cc1ccc2[nH]c3c(c2c1)CCCC3NC1Cc2ccccc2C1 (stereo not shown) [Example 41, N-(2.3-Dihydro-1H-inden-2-yl)-6-methyl-2,3,4,9-tetrahydro-1H-carbazol-1-amine hydrochloride-salt] showed an IC50 of 400 nM.

Same assay, conditions: Human papillomavirus 16, W12-20850, 96 h, read-out: W-12
c1ccc(CNC2CCCc3c2[nH]c2ccccc32)cc1 (stereo not shown) [Example 15, N-Benzyl-2,3,4,9-tetrahydrocarbazole-1-amine hydrochloride salt] showed an IC50 of 6600 nM. COc1ccc(CNC2CCCc3c2[nH]c2ccccc32)cc1 (stereo not shown) [Example 16, N-(4-Methoxybenzyl)-2,3,4,9-tetrahydro-1H-carbazol-1-amine hydrochloride salt] was tested, and the IC50 was 1500 nM. c1ccc(CCNC2CCCc3c2[nH]c2ccccc32)cc1 (stereo not shown) [Example 17, N-(2-Phenylethyl)-2,3,4,9-tetrahydro-1H-carbazol-1-amine hydrochloride salt] was tested, and the IC50 was 7400 nM. C[C@@H](NC1CCCc2c1[nH]c1ccccc21)c1ccccc1 (stereo partly drawn) [Example 18, N-[(1R)-1-Phenylethyl]-2,3,4,9-tetrahydro-1H-carbazol-1-amine hydrochloride salt] showed an IC50 of 12300 nM. For c1ccc2c3c([nH]c2c1)C(NC1CCCCC1)CCC3 (stereo not shown) [Example 19, N-Cyclohexyl-2,3,4,9-tetrahydro-1H-carbazol-1-amine hydrochloride salt], the IC50 was 14500 nM. For CCCNC1CCCc2c1[nH]c1ccccc21 (stereo not shown) [Example 21, N-Propyl-2,3,4,9-tetrahydro-1H-carbazol-1-amine hydrochloride salt], the IC50 was 40000 nM. COCCNC1CCCc2c1[nH]c1ccccc21 (stereo not shown) [Example 22, N-(2-Methoxyethyl)-2,3,4,9-tetrahydro-1H-carbazol-1-amine hydrochloride salt] showed an IC50 of 47000 nM. In the case of OC[C@H](NC1CCCc2c1[nH]c1ccccc21)c1ccccc1 (stereo partly drawn) [Example 23, (2R)-2-Phenyl-2-(2,3,4,9-tetrahydro-1H-carbazol-1-ylamino)ethanol hydrochloride salt], the IC50 is reported as 30000 nM. Molecule Brc1ccc2[nH]c3c(c2c1)CCCC3NCCc1ccccc1 (stereo not shown) [Example 26, 6-Bromo-N-(2-phenylethyl)-2,3,4,9-tetrahydro-1H-carbazol-1-amine hydrochloride salt] has an IC50 of 410 nM. With Brc1ccc2[nH]c3c(c2c1)CCC[C@H]3NC1Cc2ccccc2C1 [Example 27, (1R)-6-Bromo-N-(2,3-dihydro-1H-inden-2-yl)-2,3,4,9-tetrahydro-1H-carbazol-1-amine hydrochloride salt] the IC50 was 57 nM. Brc1ccc2[nH]c3c(c2c1)CCCC3NCc1ccccc1 (stereo not shown) [Example 29, N-Benzyl-6-bromo-2,3,4,9-tetrahydro-1H-carbazol-1-amine hydrochloride salt] was tested, and the IC50 was 115 nM. Molecule C[C@@H](NC1CCCc2c1[nH]c1ccc(Br)cc21)c1ccccc1 (stereo partly drawn) [Example 30, 6-Bromo-N-[(1R)-1-phenylethyl]-2,3,4,9-tetrahydro-1H-carbazol-1-amine hydrochloride salt] has an IC50 of under 200 nM. Molecule C[C@@H](N[C@@H]1CCCc2c1[nH]c1ccc(Br)cc21)c1ccccc1 [Example 31, (1R)-6-bromo-N-[(1R)-1-phenylethyl]-2,3,4,9-tetrahydro-1 H-carbazol-1-amine hydrochloride salt] has an IC50 of 30 nM. C[C@@H](N[C@H]1CCCc2c1[nH]c1ccc(Br)cc21)c1ccccc1 [Example 32, (1S)-6-Bromo-N-[(1R)-1-Phenylethyl]-2,3,4,9-tetrahydro-1H-carbazol-1-amine hydrochloride salt] gave an IC50 of 525 nM. CC(C)(NC1CCCc2c1[nH]c1ccc(Br)cc21)c1ccccc1 (stereo not shown) [Example 33, 6-Bromo-N-(1-methyl-1-phenylethyl)-2,3,4,9-tetrahydro-1H-carbazol-1-amine hydrochloride salt] showed an IC50 of 750 nM. For C[C@H](NC1CCCc2c1[nH]c1ccc(Br)cc21)c1ccccc1 (stereo partly drawn) [Example 34, 6-Bromo-N-[(1S)-1-phenylethyl]-2,3,4,9-tetrahydro-1H-carbazol-1-amine hydrochloride salt], the IC50 was 290 nM. With C[C@H](N[C@H]1CCCc2c1[nH]c1ccc(Br)cc21)c1ccccc1 [Example 35, (1S)-6-Bromo-N-[(1S)-1-phenylethyl]-2,3,4,9-tetrahydro-1H-carbazol-1-amine hydrochloride salt] the IC50 was 3000 nM. C[C@H](N[C@@H]1CCCc2c1[nH]c1ccc(Br)cc21)c1ccccc1 [Example 36, (1R)-6-Bromo-N-[(1S)-1-phenylethyl]-2,3,4,9-tetrahydro-1H-carbazol-1-amine hydrochloride salt] gave an IC50 of 20 nM. Work on CN(CCc1ccccc1)C1CCCc2c1[nH]c1ccc(Br)cc21 (stereo not shown) [Example 37, 6-Bromo-N-methyl-N-(2-phenylethyl)-2,3,4,9-tetrahydro-1H-carbazol-1-amine hydrochloride salt] yielded an IC50 of 3000 nM. For Cn1c2c(c3cc(Br)ccc31)CCCC2NCCc1ccccc1 (stereo not shown) [Example 38, 6-Bromo-9-methyl-N-(2-phenylethyl)-2,3,4,9-tetrahydro-1H-carbazol-1-amine hydrochloride salt], the IC50 was 27000 nM. Work on C[C@@H](CNC1CCCc2c1[nH]c1ccc(Br)cc21)c1ccccc1 (stereo partly drawn) [Example 39, 6-Bromo-N-[(2R)-2-phenylpropyl]-2,3,4,9-tetrahydro-1H-carbazol-1-amine hydrochloride salt] yielded an IC50 of 160 nM. For Cc1ccc2[nH]c3c(c2c1)CCCC3NCCc1ccccc1 (stereo not shown) [Example 40, 6-Methyl-N-(2-phenylethyl)-2,3,4,9-tetrahydro-1H-carbazol-1-amine hydrochloride salt], the IC50 was 2700 nM. Cc1ccc2[nH]c3c(c2c1)CCCC3N[C@H](C)c1ccccc1 (stereo partly drawn) [Example 42, 6-Methyl-N-[(1R)-1-phenylethyl]-2,3,4,9-tetrahydro-1H-carbazol-1-amine hydrochloride salt] gave an IC50 of 540 nM. Cc1ccc2[nH]c3c(c2c1)CCC[C@H]3N[C@H](C)c1ccccc1 [Example 43, hydrochloride salt] was tested, and the IC50 was 240 nM. In the case of Cc1ccc2[nH]c3c(c2c1)CCC[C@@H]3N[C@H](C)c1ccccc1 [Example 44, (1S)-6-Methyl-N-[(1R)-1-phenylethyl]-2,3,4,9-tetrahydro-1H-carbazol-1-amine hydrochloride salt], the IC50 is reported as 8400 nM. Cc1ccc2[nH]c3c(c2c1)CCCC3N[C@@H](C)c1ccccc1 (stereo partly drawn) [Example 45, 6-Methyl-N-[(1S)-1-phenylethyl]-2,3,4,9-tetrahydro-1H-carbazol-1-amine hydrochloride salt] gave an IC50 of 7000 nM.
